Here are results for four compounds from patent US20250235448A1, “COMBINATION THERAPY FOR TREATING CANCER” (AstraZeneca AB, priority 2022, published 2025).

The term AC50 denotes the concentration giving half of the maximal activity seen.

Read-outs that look alike come from different tables or passages of the source.

The test system of one data set is CYP3A4. The settings on record: literature statement (Gibbons 2015, Dirix 2016); cited from earlier work.
The subject of the next data set is CWR22Pc-R1-AD1. Kind of data set: Cell proliferation / viability assay (7 days after treatment), AC50 and HSA combination benefit. Format: cell-based. As to the method: (§1) The following cell lines were originally obtained from ATCC:
Cell line identification was validated using the CellCheck assay (IDEXX Bioanalytics, Westbrook, ME, USA). All cell lines were validated free of virus Mycoplasma contamination using the MycoSEQ assay (Thermo Fisher Scientific, Waltham, MA, USA) or STAT-Myco assay (IDEXX Bioanalytics).
Live cell count pre- and post-treatment (7 days after treatment) was determined using CellTiter-Glo as per manufacturer's instructions (Promega, Madison, WI, USA; G7570).

For a further data set, the system named is LnCAP 95. The data set is described as above. The settings on record: LnCAP 95 (mCRPC) cells; monotherapy; mean of two independent experiments each in triplicate. Format: cell-based. As to the method: as §1
(§2) Cell line identification was validated using the CellCheck assay (IDEXX Bioanalytics, Westbrook, ME, USA). All cell lines were validated free of virus Mycoplasma contamination using the MycoSEQ assay (Thermo Fisher Scientific, Waltham, MA, USA) or STAT-Myco assay (IDEXX Bioanalytics). All cell lines were grown RPMI-1640 growth media (Corning 17-105-CV) supplemented with 10% fetal bovine serum (FBS) or, when indicated, 10% charcoal stripped FBS (ThermoFisher Scientific, 12676029) and 2 mM glutamine.
(§3) Cells in 384-well or 96-well plates were dosed using an Echo 555 (LabCyte, San Jose, CA, USA) or using the HP D300e Digital Dispenser (HP Life Science Dispensing), respectively. Live cell count pre- and post-treatment (7 days after treatment) was determined using CellTiter-Glo as per manufacturer's instructions (Promega, Madison, WI, USA; G7570).
(§4) Cell viability was determined with the Sytox Green assay as described in Davies 2012 and the AC50 calculated. The HSA (Highest Single Agent) Synergy Score was calculated according to Bernenbaum 1989.

A further data set deals with LnCAP. Described as above. Format: cell-based. The settings on record: Homo sapiens; LnCAP (mHSPC) cells; monotherapy; mean of two independent experiments each in triplicate. As to the method:
as §1, §2, §3, §4

For another data set, the system named is non-metastatic CRPC. The settings on record: patients with non-metastatic CRPC, ARAMIS trial; placebo 18.5 months; cited from earlier work.

As for `O=C(c1cc(Cc2n[nH]c(=O)c3ccccc23)ccc1F)N1CCN(C(=O)C2CC2)CC1` [Olaparib], the “CYP3A4 interaction (inducer / substrate)” value with CYP3A4 is listed as “substrate of CYP3A4”.

As for `CCc1cc2ncc(CN3CCN(c4ccc(C(=O)NC)nc4)CC3)cc2[nH]c1=O` [AZD5305, 5-{4-[(7-ethyl-6-oxo-5,6-dihydro-1,5-naphthyridin-3-yl)methyl]piperazin-1-yl}-N-methylpyridine-2-carboxamide], the AC50 in the data set on CWR22Pc-R1-AD1 (CWR22Pc-R1-AD1 (mCRPC) cells, monotherapy, mean of two independent experiments each in triplicate, read-out: AC50) is 5.66 nM; in the data set with LnCAP 95, 700 nM; in the data set with LnCAP it was 285 nM.

Regarding `CC(O)c1cc(C(=O)N[C@@H](C)Cn2ccc(-c3ccc(C#N)c(Cl)c3)n2)n[nH]1` (stereo partly drawn) [Darolutamide, N—((S)-1-(3-(3-chloro-4-cyanophenyl)-1H-pyrazol-1-yl)propan-2-yl)-5-(1-hydroxyethyl)-1H-pyrazole-3-carboxamide], the AC50 in the data set on CWR22Pc-R1-AD1 came out at 65.5 nM; with LnCAP 95, 17500 nM; in the data set with LnCAP it was 3630 nM. Moreover, in the data set on non-metastatic CRPC, the metastasis free survival is listed as 40.4 months.

With `CNC(=O)c1ccc(N2C(=S)N(c3ccc(C#N)c(C(F)(F)F)c3)C(=O)C2(C)C)cc1F` [enzalutamide], in the data set on CYP3A4, the “CYP3A4 interaction (inducer / substrate)” value is “strong CYP3A4 inducer”.
